Assay results as given in PMC6271179 (Molecules, 2014).

Experiments:
[1] = In vivo pharmacokinetics after oral (intragastric) administration to rats; settings: rat
Description: Derivative 2 was administered to overnight-fasted male Wistar rats from the facility of the Department of Biomedical Sciences as a single intragastric dose (88 µmol/kg, dissolved in 250 µL water). Blood samples were obtained by the tail bleeding technique: before drug administration, rats were anesthetised with isoflurane and the tip of the tail was cut off; blood samples (80–100 µL each) were then taken from the tail tip at different time points after drug administration. Blood was collected in heparinised tubes, kept in ice and treated as described in [90] within 10 min.
For quantification purposes we assumed the same absorption coefficient.

[2] = test system: explanted rat jejunum segments; assay: Permeation across explanted rat jejunum segments in Ussing-type chambers (ex vivo)
Description: We assayed transport of the derivatives across explanted rat jejunum segments using Ussing-type chambers.
Intestine was excised from 18 h fasted rats and transferred into a saline solution (154 mM NaCl in water) at 37 °C. The jejunum was cut into 1 cm long strips, opened longitudinally, rinsed free of luminal content and mounted in Ussing-type chambers. Apical and basolateral compartments were filled with 1 mL each of oxygenated HEPES buffer (248 mM NaCl, 55.3 mM glucose, 50 mM NaHCO3, 9.9 mM KCl, 1.9 mM MgSO4, 40 mM HEPES, pH 6.8), and incubated in a water bath at 37 °C until all chambers were assembled (approximately 20 min). The buffer was then removed and substituted with 1 mL of a 20 µM solution (in the same buffer) of the compound to be tested on the apical side (dilution from a 20 mM stock solution), and with 1 mL of fresh HEPES buffer on the basolateral one. […] During the experiment, oxygen was continuously bubbled in each basolateral compartment. […]
Samples (2 µL) were analyzed by HPLC/UV (1290 Infinity LC System, Agilent Technologies) using a reverse phase column (Zorbax RRHD Eclipse Plus C18, 1.8 µm, 50 x 2.1 mm i.d.; Agilent Technologies) and a UV diode array detector (190-500 nm). […]

Structure (SMILES): CN(CCCCOC1C(O)C(O)OC(CO)C1O)C(=O)Oc1ccc(C=Cc2cc(OC(=O)N(C)CCCCOC3C(O)C(O)OC(CO)C3O)cc(OC(=O)N(C)CCCCOC3C(O)C(O)OC(CO)C3O)c2)cc1 [derivative 2, 3,4',5-Tri-[α/β-D-glucopyranose-3-(4-N-methyl-N-butoxy)]-resveratrol carbamate]
- Tmax ([1]; male, Wistar, whole blood, po, 88 umol/kg, single intragastric dose 88 µmol/kg, blood, read-out: time of maximum blood levels (converted)): ~1 h
- concentration of the derivative in the bloodstream ([1]; gavage 88 µmol/kg, during the 4 hours following administration): low concentrations
- resveratrol and its common metabolites in blood after oral administration (hydrolysis of carbamate groups) ([1]; oral, also basolateral chamber ex vivo): Neither resveratrol nor its common metabolites were present in detectable amounts
- species detected in the basolateral chamber ([2]; 20 µM apical, 2.5 h): only the intact derivative was detected
- extent of translocation with SGLT-1/GLUT-2 inhibitors (phlorizin, phloretin, cytochalasin B), low glucose, non-fasted or glucose-fed rats ([2]; comparison among conditions): not to differ significantly
